# Laboratory results published in patent US6677309B1, “Anti-cancer drug aldehyde conjugate drugs with enhanced cytotoxicity compounds, compositions and methods” (University Technology Corporation, priority 1997, dated 2004).
# Like-named read-outs stand apart in the source and are kept apart here.
# Tests used:
# DU-145 = experiment: Prostate cancer cell cytotoxicity, crystal violet assay, DU-145; assay type: cell-based, human
# Experimental: (§1) Toxicity to the three prostate cancer cell lines, LNCaP, DU-145, and PC-3 were measured in two different media, RPMI-1640 and DMEM (Dulbecco's Modified Eagle Medium), both supplemented with 10% fetal bovine serum.
# (§2) Cell lines were maintained in vitro in RPMI 1640 media or DMEM, each supplemented with 10% fetal bovine serum, 2 mM L-glutamine, 10 mM HEPES buffer, penicillin (100 units/mL) and streptomycin (100 μg/mL).
# (§3) Cells were dissociated with trypsin/EDTA, counted, and suspended in growth media (RPMI or DMEM) to a concentration of 5.6×10^3 cells/mL. Cell suspensions were dispensed in 180 μL aliquots into 96-well tissue culture plates. […] Each 100× solution was diluted 10× in growth media (RPMI or DMEM), and a 20 μL aliquot of the resulting 10× solution was immediately (<10s) added to-the appropriate lane. Additionally, one lane was treated with 20 μL of 10% DMSO in growth media (no drug) and one lane was treated with 200 μL of 1.5 M Tris buffer (no cells). The cells were incubated with the drugs for 3 h at 37° C. The drug solutions were then removed and replaced with 200 μL of fresh media. The cells were incubated for 4 days (7 days for PC-3 cells in DMEM) at 37° C. in a humidified atmosphere of 5% CO2 and 95% air. Cell survival was determined using a crystal violet assay as described earlier (Fenick, D. J. et al (1997) J. Med. Chem. 40: 2452-2461).
# PC-3 = experiment: Prostate cancer cell cytotoxicity, crystal violet assay, PC-3; assay type: cell-based, human
# Experimental: as §1, §2, §3
# MCF-7 cells = experiment: In vitro cytotoxicity, colony formation by crystal violet assay, MCF-7
# Experimental: (§4) The term IC50 as used herein refers to the concentration of drug which inhibits cell growth by 50%, i.e., 50% of cells are viable at the IC50 concentration relative to a no-drug control.
# (§5) Cells were incubated with drug for 3 h in RPMI (Roswell Park Memorial Institute) 1640 media containing 10% fetal bovine serum and 1% DMSO. Plates, were developed using the crystal violet assay. […] In all cases percent survival was determined by the extent of colony formation six days after drug treatment.
# (§6) All tissue culture materials were obtained from Gibco Life Technologies (Grand Island, N.Y.) unless otherwise stated. MCF-7 breast cancer cells were obtained from American Type Culture Collection (Rockville, Md.). […] Both cell lines were maintained in vitro by serial culture in phenol red-free RPMI Media 1640 supplemented with 10% fetal bovine serum (Gemini Bio-Products, Calbasas, Calif.), L-glutamine (2 mM), HEPES buffer (10 mM), penicillin (100 units/mL), and streptomycin (100 μg/mL). […] Cells were maintained at 37° C. in a humidified atmosphere of 5% CO2 and 95% air.
# (§7) Cells were dissociated with trypsin-EDTA, counted, and suspended in growth media to a concentration of 5×10^3 cells/mL. Cell suspensions were dispensed in 200 μL aliquots into 96-well tissue culture plates. Plates were then incubated for 24 h at 37° C. in a humidified atmosphere of 5% CO2 and 95% air. The media was replaced with 180 μL of growth media prior to addition of the cytotoxic agents.
# (§8) Concentrations were then corrected by measuring the solution absorbance at 480 nm (ε=11,500/mole anthracycline). The solutions were then serially diluted in DMSO to give a series of 100× working concentration solutions. For each concentration, the 100× solution was diluted 1:10 in serum-free RPMI Media 1640. 20 μL of the resulting […] solution was immediately added to the appropriate lane. Additionally, one lane was treated with 20 μL of 10% DMSO in serum-free RPMI (no drug) and one lane replaced with 200 μL of 1.5 M Tris buffer (no cells). The cells were incubated at 37° C. for 3 h. The drug solutions were removed and 200 μL of fresh growth media was added to each well.
# (§9) The extent of colony formation was determined by use of a crystal violet staining assay (Gilles, R. J. et al. (1986), “Determination of cell number in monolayer cultures,” Anal. Biochem. 159:109-113; Reile, H. et al. (1990), “Computerized determination of growth kinetic curves and doubling times from cells in microcultures,” Anal. Biochem. 187:262-267). […] The cells were then stained with 75 μL of 0.1% crystal violet in deionized water for 30 min. […] The plates were blotted dry and 200 μL of 70% ethanol in water was added to each well to solublize the dye. The plates were stored at 4° C. until solubilization was complete (about 4 h). The optical density of each well was measured on an ELISA plate reader at 588 nm. Relative colony sizes were determined by comparison of the drug treated lanes to the control lanes.
# (§10) MCF-7 breast cancer cells were obtained from American Type Culture Collection (Rockville, Md.). MCF-7/ADR adriamycin resistant breast cancer cells were a gift of Dr. William W. Wells (Michigan State University). Both cell lines were maintained in vitro by serial culture in phenol red-free RPMI Media 1640 supplemented with 10% fetal bovine serum (Gemini Bio-Products, Calbasas, Calif.), L-glutamine (2 mM), HEPES buffer ([…]), penicillin (100 units/mL), and streptomycin (100 μg/mL). […] Cells were maintained at 37° C. in a humidified atmosphere of 5% CO2 and 95% air.
# 1640 media containing 10% fetal bovine serum. The resulting 90% media/10% DMSO solutions (v/v) were incubated at 37° C. for 6h.
# MCF-7/ADR cells = experiment: In vitro cytotoxicity, colony formation by crystal violet assay, MCF-7/ADR
# Experimental: as §4, §5, §6, §7, §8, §9, §10
# These were then diluted 10× with autoclaved Millipore water.
# LNCaP = experiment: Prostate cancer cell cytotoxicity, crystal violet assay, LNCaP; assay type: cell-based, human
# Experimental: as §1, §2, §3
# [1] = test system: self-complementary DNA octamer (GC)4; experiment: Drug-DNA conjugate formation with (GC)4, HPLC; assay type: biochemical; details: 5 h
# Experimental: The amount of available formaldehyde was 99 μM (3×33 μM). […] The experiment was also run at 25° C. in pH 6.0 phosphate buffer containing 4% DMSO. […] The ratio for conjugate 1 was assumed to be 24:1, based upon the value for conjugate 2. […] Under these circumstances, the conjugate 1 area was estimated based upon its 480 nm absorbance, assuming the 24:1 ratio for A260:A480.
# The formation of drug-DNA conjugates at 25° C. was monitored by HPLC (Method II). […] The experiment was also run in pH 6.0 phosphate buffer containing 4% DMSO.
# [2] = Homo sapiens, MCF7, read-out: IC50 Values, MCF-7
# [3] = Homo sapiens, NCI/ADR-RES, read-out: IC50 Values, MCF-7-ADR
# [4] = Homo sapiens, DU-145, DMEM with 10% fetal bovine serum, 3 h drug, 4 days growth, read-out: IC50 Values, DU-145/DMEM (converted)
# [5] = Homo sapiens, PC-3, DMEM with 10% fetal bovine serum, 3 h drug, 7 days growth, read-out: IC50 Values, PC-3/DMEM (converted)
# [6] = Homo sapiens, PC-3, RPMI-1640 with 10% fetal bovine serum, 3 h drug, 4 days growth, read-out: IC50 Values, PC-3/RPMI-1640 (converted)
# [7] = Homo sapiens, LNCaP, DMEM with 10% fetal bovine serum, 3 h drug, 4 days growth, read-out: IC50 Values, LNCaP/DMEM (converted)
# [8] = Homo sapiens, LNCaP, RPMI-1640 with 10% fetal bovine serum, 3 h drug, 4 days growth, read-out: IC50 Values, LNCaP/RPMI-1640 (converted)
smiles,measurement,setting,value
"COc1cccc2c1C(=O)c1c(O)c3c(c(O)c1C2=O)C[C@@](O)(C(C)=O)C[C@@H]3O[C@H]1C[C@H](N)[C@H](O)[C@H](C)O1 [DAUN, daunorubicin, reference compound]",IC50,"DU-145; Homo sapiens, DU-145, read-out: IC50 Values, DU-145/DMEM",25 nM
same,IC50,"DU-145; Homo sapiens, DU-145, read-out: IC50 Values, DU-145/RPMI-1640",100 nM
same,IC50,"PC-3; Homo sapiens, PC-3, read-out: IC50 Values, PC-3/DMEM",20 nM
same,IC50,"PC-3; Homo sapiens, PC-3, read-out: IC50 Values, PC-3/RPMI-1640",20 nM
same,IC50,MCF-7 cells; [2],60 nM
same,IC50,MCF-7/ADR cells; [3],2000 nM
same,IC50,"LNCaP; Homo sapiens, LNCaP, read-out: IC50 Values, LNCaP/DMEM",8 nM
same,IC50,"LNCaP; Homo sapiens, LNCaP, read-out: IC50 Values, LNCaP/RPMI-1640",20 nM
"COc1cccc2c1C(=O)c1c(O)c3c(c(O)c1C2=O)C[C@@](O)(C(=O)CO)C[C@@H]3O[C@H]1C[C@H](N)[C@H](O)[C@H](C)O1 [DOX, doxorubicin, reference compound]",IC50,DU-145; [4],60 nM
same,IC50,PC-3; [5],60 nM
same,IC50,PC-3; [6],30 nM
same,IC50,MCF-7/ADR cells; [3],10000 nM
same,IC50,LNCaP; [7],15 nM
same,IC50,LNCaP; [8],20 nM
"COc1cccc2c1C(=O)c1c(O)c3c(c(O)c1C2=O)C[C@@](O)(C(=O)CO)C[C@@H]3O[C@H]1C[C@H](N)[C@@H](O)[C@H](C)O1 [EPI, epidoxorubicin, reference compound]",DNA reacted to form drug-DNA conjugates,"[1]; 33 μM (GC)4, 66 μM epidoxorubicin plus 99 μM formaldehyde, pH 6.0, 4% DMSO",51%
same,DNA reacted to form drug-DNA conjugates,"[1]; 33 μM (GC)4, 66 μM epidoxorubicin plus 99 μM formaldehyde, pH 7.3, 4% DMSO, 25° C.",75%
same,DNA reacted to form drug-DNA conjugates,"[1]; 166 μM (GC)4, 664 μM epidoxorubicin plus 996 μM HCHO, pH 7.3, 4% DMSO, 25° C.",93%
same,IC50,DU-145; [4],40 nM
same,IC50,PC-3; [5],60 nM
same,IC50,PC-3; [6],30 nM
same,IC50,MCF-7 cells; [2],200 nM
same,IC50,"MCF-7 cells; Homo sapiens, MCF7, read-out: IC50 Values, MCF-7, Media/Serum",> 10000 nM
same,IC50,MCF-7/ADR cells; [3],> 10000 nM
same,IC50,LNCaP; [7],20 nM
same,IC50,LNCaP; [8],20 nM
COc1cccc2c1C(=O)c1c(O)c3c(c(O)c1C2=O)C[C@@](O)(C(=O)CO)C[C@@H]3O[C@H]1C[C@H]2[C@@H](OCN3CN2CO[C@H]2[C@H](C)O[C@@H](O[C@H]4C[C@](O)(C(=O)CO)Cc5c(O)c6c(c(O)c54)C(=O)c4c(OC)cccc4C6=O)C[C@@H]23)[C@H](C)O1 [EPIF],IC50,"DU-145; DMEM with 10% fetal bovine serum, 3 h drug, 4 days growth, read-out: IC50 Values, DU-145/DMEM (converted)",4 nM
same,IC50,"DU-145; RPMI-1640 with 10% fetal bovine serum, 3 h drug, 4 days growth, read-out: IC50 Values, DU-145/RPMI-1640 (converted)",15 nM
same,IC50,"PC-3; DMEM with 10% fetal bovine serum, 3 h drug, 7 days growth, read-out: IC50 Values, PC-3/DMEM (converted)",15 nM
same,IC50,"PC-3; RPMI-1640 with 10% fetal bovine serum, 3 h drug, 4 days growth, read-out: IC50 Values, PC-3/RPMI-1640 (converted)",3.5 nM
same,IC50,"MCF-7 cells; read-out: IC50 Values, MCF-7, Media/Serum, drug preincubated 6 h at 37° C. in 10% DMSO/90% RPMI 1640 containing 10% fetal bovine serum",200 nM
same,IC50,"MCF-7 cells; read-out: IC50 Values, MCF-7, 3 h drug incubation in RPMI 1640, 10% fetal bovine serum, 1% DMSO, colony formation six days after treatment, fresh drug solution",32.5 nM
same,IC50,"MCF-7/ADR cells; read-out: IC50 Values, MCF-7-ADR, EPIF/DMSO, drug stored in DMSO (not dried) for 20 h at ambient temperature before treatment",150 nM
same,IC50,"MCF-7/ADR cells; read-out: IC50 Values, MCF-7-ADR, EPIF/H2O, drug preincubated in 90% H2O/10% DMSO at 37° C. for 20 h (equilibrium mixture with intermediates B, C, D)",200 nM
same,IC50,"MCF-7/ADR cells; read-out: IC50 Values, MCF-7-ADR, 3 h drug incubation in RPMI 1640, 10% fetal bovine serum, 1% DMSO, colony formation six days after treatment, fresh drug solution",35 nM
same,IC50,"MCF-7/ADR cells; read-out: IC50 Values, MCF-7/ADR, Media/Serum, drug preincubated 6 h at 37° C. in 10% DMSO/90% RPMI 1640 containing 10% fetal bovine serum",150 nM
same,IC50,"LNCaP; DMEM with 10% fetal bovine serum, 3 h drug, 4 days growth, read-out: IC50 Values, LNCaP/DMEM (converted)",1 nM
same,IC50,"LNCaP; RPMI-1640 with 10% fetal bovine serum, 3 h drug, 4 days growth, read-out: IC50 Values, LNCaP/RPMI-1640 (converted)",3.5 nM
"C=O [formaldehyde, reference compound]",IC50,"MCF-7 cells; Homo sapiens, MCF7, read-out: IC50 value, control experiment, MCF-7",> 200000 nM
same,IC50,"MCF-7/ADR cells; Homo sapiens, NCI/ADR-RES, read-out: IC50 value, control experiment, MCF-7/ADR",> 200000 nM
